From the supplement of paper PMC10307832

Key:
Assay in all cases: relative viability (nuclei count vs DMSO), 5 days (fraction); higher = more cells survive
Bosutinib + Foretinib = compound: COc1cc(Nc2c(C#N)cnc3cc(OCCCN4CCN(C)CC4)c(OC)cc23)c(Cl)cc1Cl [Bosutinib] + COc1cc2c(Oc3ccc(NC(=O)C4(C(=O)Nc5ccc(F)cc5)CC4)cc3F)ccnc2cc1OCCCN1CCOCC1 [Foretinib] (partner 0.25 µM)
Summary of the method: (§1)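 Relative viability divides the nuclei count in treated wells by that in vehicle wells. Lung cancer cell lines were seeded in 1536-well plates, dosed by pin tool the next day, and fixed and stained after 5 days in one step with final 0.05% Triton X-100, 1% formaldehyde and 1 ug/ml Hoechst. Dosing was a single drug or a fixed anchor-drug dose plus five library-drug doses (not always all listed) in √10 steps, and values are medians of duplicate plates imaged at 4×.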

Bosutinib + Lapatinib = compound: COc1cc(Nc2c(C#N)cnc3cc(OCCCN4CCN(C)CC4)c(OC)cc23)c(Cl)cc1Cl [Bosutinib] + CS(=O)(=O)CCNCc1ccc(-c2ccc3ncnc(Nc4ccc(OCc5cccc(F)c5)c(Cl)c4)c3c2)o1 [Lapatinib] (partner 2 µM)
Summary of the method: as §1

Bosutinib + Dasatinib = compound: COc1cc(Nc2c(C#N)cnc3cc(OCCCN4CCN(C)CC4)c(OC)cc23)c(Cl)cc1Cl [Bosutinib] + Cc1nc(Nc2ncc(C(=O)Nc3c(C)cccc3Cl)s2)cc(N2CCN(CCO)CC2)n1 [Dasatinib] (partner 0.075 µM)
Summary of the method: as §1

Bosutinib + Navitoclax = compound: COc1cc(Nc2c(C#N)cnc3cc(OCCCN4CCN(C)CC4)c(OC)cc23)c(Cl)cc1Cl [Bosutinib] + CC1(C)CCC(c2ccc(Cl)cc2)=C(CN2CCN(c3ccc(C(=O)NS(=O)(=O)c4ccc(N[C@H](CCN5CCOCC5)CSc5ccccc5)c(S(=O)(=O)C(F)(F)F)c4)cc3)CC2)C1 [Navitoclax] (partner 0.5 µM)
Summary of the method: as §1

Bosutinib + Trametinib = compound: COc1cc(Nc2c(C#N)cnc3cc(OCCCN4CCN(C)CC4)c(OC)cc23)c(Cl)cc1Cl [Bosutinib] + CC(=O)Nc1cccc(-n2c(=O)n(C3CC3)c(=O)c3c(Nc4ccc(I)cc4F)n(C)c(=O)c(C)c32)c1 [Trametinib] (partner 0.02 µM)
Summary of the method: as §1

Row | Cell Line | relative viability (Bosutinib + Foretinib; first compound 0.01 µM) | relative viability (Bosutinib + Foretinib; first compound 0.03162 µM) | relative viability (Bosutinib + Foretinib; first compound 0.1 µM) | relative viability (Bosutinib + Foretinib; first compound 1 µM) | relative viability (Bosutinib + Lapatinib; first compound 0.01 µM) | relative viability (Bosutinib + Lapatinib; first compound 0.03162 µM) | relative viability (Bosutinib + Lapatinib; first compound 0.1 µM) | relative viability (Bosutinib + Lapatinib; first compound 1 µM) | relative viability (Bosutinib + Dasatinib; first compound 0.01 µM) | relative viability (Bosutinib + Dasatinib; first compound 0.03162 µM) | relative viability (Bosutinib + Dasatinib; first compound 0.1 µM) | relative viability (Bosutinib + Dasatinib; first compound 1 µM) | relative viability (Bosutinib + Navitoclax; first compound 0.01 µM) | relative viability (Bosutinib + Navitoclax; first compound 0.03162 µM) | relative viability (Bosutinib + Navitoclax; first compound 0.1 µM) | relative viability (Bosutinib + Navitoclax; first compound 1 µM) | relative viability (Bosutinib + Trametinib; first compound 0.01 µM) | relative viability (Bosutinib + Trametinib; first compound 0.03162 µM) | relative viability (Bosutinib + Trametinib; first compound 0.1 µM) | relative viability (Bosutinib + Trametinib; first compound 1 µM)
1 | LXF-289 | 0.926 | 1 | 0.979 | 0.913 | 0.881 | 0.912 | 0.913 | 0.929 | 0.231 | 0.213 | 0.2 | 0.224 | 0.938 | 0.945 | 0.911 | 0.966 | 0.654 | 0.721 | 0.679 | 0.751
2 | NCI-H23 | 0.939 | 1.03 | 0.979 | 0.723 | 1.09 | 1.06 | 1.2 | 1.11 | 0.927 | 0.937 | 0.679 | 0.76 | 0.904 | 0.742 | 0.869 | 0.764 | 0.343 | 0.344 | 0.36 | 0.277
3 | NCI-H322M | 1.04 | 0.867 | 0.881 | 0.414 | 0.51 | 0.589 | 0.623 | 0.573 | 0.252 | 0.267 | 0.246 | 0.301 | 1.12 | 1.25 | 1.28 | 1.2 | 0.486 | 0.481 | 0.492 | 0.361
4 | NCI-H460 | 1.01 | 1.03 | 1 | 0.855 | 1.03 | 0.875 | 0.874 | 0.833 | 0.548 | 0.491 | 0.51 | 0.537 | 1.09 | 1.11 | 1.02 | 0.683 | 0.17 | 0.135 | 0.157 | 0.0941
5 | NCI-H520 | 0.929 | 0.857 | 0.789 | 0.551 | 1.01 | 0.86 | 0.855 | 0.639 | 0.226 | 0.232 | 0.199 | 0.22 | 1.33 | 0.988 | 1.05 | 0.964 | 0.703 | 0.633 | 0.6 | 0.417
6 | NCI-H596 | 0.745 | 0.857 | 0.721 | 0.855 | 1.07 | 0.991 | 1.07 | 1.1 | 0.595 | 0.721 | 0.704 | 0.637 | 1.06 | 0.86 | 1.18 | 0.785 | 0.842 | 0.765 | 0.825 | 0.663
7 | NCI-H647 | 1.28 | 1.17 | 1.31 | 0.778 | 1.06 | 1.16 | 1.09 | 0.53 | 0.22 | 0.219 | 0.222 | 0.174 | 1.25 | 1.23 | 1.09 | 0.82 | 0.488 | 0.483 | 0.375 | 0.221
8 | NCI-H727 | 0.91 | 0.859 | 0.639 | 0.568 | 0.781 | 0.767 | 0.781 | 0.384 | 0.374 | 0.321 | 0.32 | 0.31 | 0.429 | 0.519 | 0.437 | 0.291 | 0.377 | 0.359 | 0.378 | 0.305
9 | NCI-H838 | 1.08 | 1.02 | 0.989 | 0.598 | 1.18 | 0.94 | 0.922 | 0.604 | 0.325 | 0.302 | 0.334 | 0.332 | 1.14 | 1.14 | 1.07 | 0.637 | 0.518 | 0.483 | 0.472 | 0.316
10 | NCI-H1355 | 0.956 | 0.973 | 1.01 | 0.917 | 1.01 | 1.04 | 1.09 | 0.957 | 0.746 | 0.673 | 0.731 | 0.709 | 0.996 | 0.925 | 0.96 | 0.814 | 0.474 | 0.425 | 0.45 | 0.419
11 | NCI-H1395 | 0.947 | 0.921 | 0.996 | 0.947 | 1.26 | 1.06 | 0.914 | 1.08 | 0.414 | 0.429 | 0.405 | 0.436 | 1.45 | 1.01 | 1.34 | 1.12 | 0.992 | 0.993 | 1.02 | 0.928
12 | NCI-H1437 | 1.23 | 1.2 | 1.14 | 1.1 | 0.89 | 0.798 | 0.784 | 0.702 | 0.392 | 0.384 | 0.4 | 0.338 | 1.13 | 1.11 | 1.01 | 0.918 | 0.486 | 0.403 | 0.53 | 0.413
13 | NCI-H1650 | 0.917 | 1.09 | 0.862 | 0.599 | 0.835 | 0.731 | 0.745 | 0.636 | 0.357 | 0.317 | 0.375 | 0.457 | 1.46 | 1.06 | 1.18 | 0.754 | 0.532 | 0.584 | 0.6 | 0.312
14 | NCI-H1651 | 0.75 | 0.737 | 0.909 | 0.8 | 0.923 | 0.877 | 0.767 | 0.823 | 0.488 | 0.452 | 0.433 | 0.482 | 1 | 1.17 | 0.88 | 0.961 | 0.805 | 0.801 | 0.829 | 0.757
15 | NCI-H1666 | 1.04 | 0.936 | 0.976 | 0.921 | 0.705 | 0.592 | 0.656 | 0.757 | 0.75 | 0.834 | 0.814 | 0.808 | 1 | 1.01 | 0.889 | 0.892 | 0.888 | 0.774 | 0.832 | 0.842
